Source: patent publication US11760889B2, “Unsaturated fatty alcohol derivatives from natural oil metathesis” (priority 2012, dated 2023)
Read-outs that look alike come from different tables or passages of the source.

Assays:
[1] = Water-soluble herbicide formulation testing (standard dilution test, emulsion stability); type: physicochemical; design: key to Emulsion stability, mL separation, 24 h: Tr = trace; settings: 342 ppm water;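 note: diluted in a 50 mL Nessler cylinder held at 30 °C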
Procedure: Surfactant candidates for water soluble herbicide applications are examined as a replacement for the anionic, nonionic, or anionic/nonionic blend portion and compared to a known industry adjuvant standard for use in paraquat, a water soluble herbicide concentrate formulation. A standard dilution test is conducted whereby the concentrates are diluted in water to determine if solubility is complete.
The cylinder is stoppered and inverted ten times. Solubility is recorded as complete or incomplete. Cylinders are allowed to stand and the amount (in mL) and type of separation are recorded after 30 min., 1 h, 2 h, and 24 h. Results of the solubility testing appear in Table 3 below.
An eight to ten mole alkyl phenol ethoxylate surfactant (0.7 g) is added and vigorously mixed for 30 s. Test sample (0.7 g) is added and mixing resumes for 30 s.
Test sample (0.7 g) is added and vigorously mixed for 30 s. Sodium linear alkylbenzene sulfonate (“NaLAS,” 0.7 g) is added and mixing resumes for 30 s.

[2] = Surfactant phase behavior study (cross-polarized microscopy); type: physicochemical; settings: room temperature (20-22° C.)
Procedure: Phase behavior is observed using an Olympus BH-2 cross-polarized microscope at 100-400× and room temperature (20° C. to 22° C.). The inventive monounsaturated sulfates and ethoxylate sulfates are compared with their saturated analogs, and in some cases, commercial surfactants.
Samples are prepared by diluting the most concentrated product gradually with deionized water. When the surfactant concentration approaches a phase transition, the concentration is varied at 2-4% intervals to estimate the phase boundary. The actives level reported in Table 15 for each phase boundary is within ±5% of the true boundary.
Samples are loaded between a microscope slide and cover glass and are allowed to equilibrate before observation. Microscopic texture is analyzed and used to determine the phase. For some samples, an AR 2000 rheometer (TA Instruments) is used to measure viscosity at 25° C. to further verify phase behavior.

[3] = Anionic emulsifier: emulsion stability testing of EW concentrate (modified ASTM E1116-98)
Procedure: Turbidity changes are noted and recorded.
A Mohr pipette is used to feed EW concentrate to each cylinder. Cylinders are stoppered and inverted ten times, then allowed to stand for 0.5, 1, and 24 h while recording stability at each time as type and % separation.
Spontaneity is recorded according to the following criteria: (1) poor: very thin emulsion cloud with major separation of oil droplets; (2) fair: thin emulsion cloud with minor separation of oil droplets; (3) good: thin emulsion cloud reaches the bottom of the cylinder without separation of any type; (4) excellent: thick emulsion cloud reaches the bottom of the cylinder without separation of any type.

[4] = Emulsion polymerization surfactant screen
Procedure: A reaction kettle is charged with sodium bicarbonate (0.50 g), water (225 g), and seed latex (30 g) and the mixture is heated to and held at 83° C. under nitrogen with stirring at 200 rpm. […] Methyl methacrylate (255 g), butyl acrylate (235 g), and methacrylic acid (10 g) are combined in an Erlenmeyer flask and mixed. […] Separately, two other mixtures are prepared: an initiator shot mixture of ammonium persulfate (1.0 g) in water (20 g), and a cofeed mixture of ammonium persulfate (2.70 g), sodium bicarbonate (1.50 g), and water (75 g); the total amount of initiator used is 0.74% based on monomers. The initiator shot is charged to the 83° C. reaction kettle dropwise over 1 min, then held for 10 min. The monomer emulsion is then fed to the kettle at 2.1 mL/min. for 10 min. The feed rate of the monomer emulsion is increased to 4.2 mL/min., and the cofeed mixture is started at 0.37 mL/min. Total addition time is 3 h, during which particle size and temperature are monitored. After addition of the monomer emulsion is complete, a water wash (50 g) is started, and heating at 83° C. continues for 1 h. The product is cooled. The pH is adjusted to 7.5 with dilute ammonium hydroxide solution. A preservative is added, and the mixture is filtered.

[5] = Adjuvant (anionic/nonionic) test sample

Question: With “3 Mole Ethoxylated C12 Alcohol, Sodium Sulfate [A12-9]” as the molecule, how does the “Emulsion stability, mL separation, 1 h” value [1, 5] read?
Answer: 0 mL

Question: What about the “Emulsion stability, mL separation, 24 h” value [1, 5] of the same molecule?
Answer: 0 mL

Question: And the “Emulsion stability, mL separation, 1 h” value ([1]; Anionic test sample)?
Answer: 0 mL

Question: And the “Emulsion stability, mL separation, 24 h” value ([1]; Anionic test sample)?
Answer: 0 mL

Question: And the “Emulsion stability, mL separation, 1 h” value ([1]; Nonionic test sample)?
Answer: 0 mL

Question: What about the “Emulsion stability, mL separation, 24 h” value ([1]; Nonionic test sample) of the same molecule?
Answer: 0 mL

Question: And the “Estimated Phase Region: Cubic” value [2]?
Answer: 60-68 % actives

Question: And the “Estimated Phase Region: Hexagonal” value [2]?
Answer: 31-60 % actives

Question: And the “Estimated Phase Region: Isotropic Clear” value [2]?
Answer: 0-31 % actives

Question: And the “Estimated Phase Region: Lamellar” value [2]?
Answer: 68-87 % actives

Question: What about the “Estimated Phase Region: Solid/gum/paste” value [2] of the same molecule?
Answer: 87-100 % actives

Question: And the “% Separation, 1 h” value ([3]; 34 ppm water)?
Answer: 3.3%

Question: What about the “% Separation, 24 h” value ([3]; 34 ppm water) of the same molecule?
Answer: 4.2%

Question: And the “% Separation, 1 h” value ([3]; 1000 ppm water)?
Answer: 2.1%

Question: What about the “% Separation, 24 h” value ([3]; 1000 ppm water) of the same molecule?
Answer: 3%

Question: Which “Emulsion stability, mL separation, 1 h” value [1, 5] does the source give for C=CCCCCCCCCOS(=O)(=O)O.N [A10-2] here?
Answer: 0 mL

Question: And the “Emulsion stability, mL separation, 24 h” value [1, 5]?
Answer: 0 mL

Question: And the “Emulsion stability, mL separation, 1 h” value ([1]; Anionic test sample)?
Answer: 0 mL

Question: What about the “Emulsion stability, mL separation, 24 h” value ([1]; Anionic test sample) of the same molecule?
Answer: 0 mL

Question: And the “Emulsion stability, mL separation, 1 h” value ([1]; Nonionic test sample)?
Answer: 0 mL

Question: And the “Emulsion stability, mL separation, 24 h” value ([1]; Nonionic test sample)?
Answer: Tr

Question: What about the “Estimated Phase Region: Hexagonal” value [2] of the same molecule?
Answer: 42-64 % actives

Question: What about the “Estimated Phase Region: Lamellar” value [2] of the same molecule?
Answer: 64-80 % actives

Question: What about the “Estimated Phase Region: Solid/gum/paste” value [2] of the same molecule?
Answer: 80-100 % actives

Question: What about the “Estimated Phase Region: Unknown” value [2] of the same molecule?
Answer: 0-42 % actives

Question: What about the “% Separation, 1 h” value ([3]; 34 ppm water) of the same molecule?
Answer: 3.8%

Question: What about the “% Separation, 24 h” value ([3]; 34 ppm water) of the same molecule?
Answer: 4%

Question: And the “% Separation, 1 h” value ([3]; 1000 ppm water)?
Answer: 3.1%

Question: And the “% Separation, 24 h” value ([3]; 1000 ppm water)?
Answer: 3.8%

Question: Which pre-emulsion stability [4] does the source give for “calcium alkylbenzenesulfonate [Control 1]” here?
Answer: stable

Question: Which “Emulsion stability, mL separation, 1 h” value [1, 5] does the source give for C=CCCCCCCCCOS(=O)(=O)[O-].[Na+] [A10-3] here?
Answer: 0 mL

Question: And the “Emulsion stability, mL separation, 24 h” value [1, 5]?
Answer: 0 mL

Question: What about the “Emulsion stability, mL separation, 1 h” value ([1]; Anionic test sample) of the same molecule?
Answer: 0 mL

Question: And the “Emulsion stability, mL separation, 24 h” value ([1]; Anionic test sample)?
Answer: 0 mL

Question: And the “Emulsion stability, mL separation, 1 h” value ([1]; Nonionic test sample)?
Answer: 0 mL

Question: What about the “Emulsion stability, mL separation, 24 h” value ([1]; Nonionic test sample) of the same molecule?
Answer: Tr

Question: And the “Estimated Phase Region: Hexagonal” value [2]?
Answer: 43-70 % actives

Question: And the “Estimated Phase Region: Isotropic Clear” value [2]?
Answer: 0-43 % actives

Question: And the “Estimated Phase Region: Lamellar” value [2]?
Answer: 70-81 % actives

Question: And the “Estimated Phase Region: Solid/gum/paste” value [2]?
Answer: 81-100 % actives

Question: And the “% Separation, 1 h” value ([3]; 34 ppm water)?
Answer: 4%

Question: And the “% Separation, 24 h” value ([3]; 34 ppm water)?
Answer: 4%

Question: And the “% Separation, 1 h” value ([3]; 1000 ppm water)?
Answer: 3%

Question: And the “% Separation, 24 h” value ([3]; 1000 ppm water)?
Answer: 3.1%

Question: Which “Emulsion stability, mL separation, 1 h” value [1, 5] does the source give for C12 Alcohol Sodium Sulfate [A12-3] here?
Answer: 0 mL

Question: What about the “Emulsion stability, mL separation, 24 h” value [1, 5] of the same molecule?
Answer: Tr

Question: What about the “Emulsion stability, mL separation, 1 h” value ([1]; Anionic test sample) of the same molecule?
Answer: 0 mL

Question: And the “Emulsion stability, mL separation, 24 h” value ([1]; Anionic test sample)?
Answer: 0 mL

Question: And the “Emulsion stability, mL separation, 1 h” value ([1]; Nonionic test sample)?
Answer: 0 mL

Question: And the “Emulsion stability, mL separation, 24 h” value ([1]; Nonionic test sample)?
Answer: Tr

Question: What about the pre-emulsion stability ([4]; surfactant level in EP 0.50%) of the same molecule?
Answer: stable

Question: And the “Estimated Phase Region: Hexagonal” value [2]?
Answer: 38-66 % actives

Question: What about the “Estimated Phase Region: Isotropic Clear” value [2] of the same molecule?
Answer: 0-38 % actives

Question: And the “Estimated Phase Region: Lamellar” value [2]?
Answer: 66-83 % actives

Question: What about the “Estimated Phase Region: Solid/gum/paste” value [2] of the same molecule?
Answer: 83-100 % actives

Question: What about the “% Separation, 1 h” value ([3]; 34 ppm water) of the same molecule?
Answer: 4.5%

Question: What about the “% Separation, 24 h” value ([3]; 34 ppm water) of the same molecule?
Answer: 5.7%

Question: And the “% Separation, 1 h” value ([3]; 1000 ppm water)?
Answer: 3%

Question: What about the “% Separation, 24 h” value ([3]; 1000 ppm water) of the same molecule?
Answer: 4%
